# Measured values: patent US8592629B2, “Sulfonamide derivatives as Nav 1.7 inhibitors” (Pfizer Limited, priority 2010, dated 2013)
# pIC50: −log10 of the molar value.
# Molecular target: T1, Nav1.7 (or SCN9A) channel (Homo sapiens, UniProt Q15858)
# T1 construct: expressed in transfected cells
# Experiment: Nav1.7 (hSCN9A) block in HEK cells, Ionworks Quattro automated electrophysiology
# Format: cell-based
# Conditions: Ionworks Quattro assay (IW); HEK cells stably transfected with hSCN9A; read-out: Nav1.7 EIC50 (IW)
# Procedure: The ability of the compounds of formula (I) to block the Nav1.7 (or SCN9A) channel were measured using the assay described below.
# Human Embryonic Kidney (HEK) cells were transfected with an hSCN9A construct using lipofectamine reagent (Invitrogen), using standard techniques. Cells stably expressing the hSCN9A constructs were identified by their resistance to G-418 (400 μg/ml). Clones were screened for expression using the whole-cell voltage-clamp technique.
# HEK cells stably transfected with hSCN9A were maintained in DMEM medium supplemented with 10% heat-inactivated fetal bovine serum and 400 μg/ml G-418 in an incubator at 37° C. with a humidified atmosphere of 10% CO2. For HTS, cells were harvested from flasks by trypsinization and replated in an appropriate multi-well plate (typically 96 or 384 wells/plate) such that confluence would be achieved within 24 hours of plating. For electrophysiological studies, cells were removed from the culture flask by brief trypsinization and re-plated at low density onto glass cover slips. Cells were typically used for electrophysiological experiments within 24 to 72 hours after plating.
# Electrophysiological assays were also conducted using the lonworks Quattro automated electrophysiological platform (Molecular Devices Corp). Intracellular and extracellular solutions were as described above with the following changes, 120 μg/ml amphotericin was added to the intracellular solution to perforate the membrane and allow electrical access to the cells. hSCN9A cells were grown and harvested as for PatchXpress and cells were resuspended in extracellular solution at a concentration of 1×10^6 cells/ml. The onboard liquid handling facility of the Ionworks Quattro was used for dispensing cells and application of test compounds. A voltage protocol was then applied that comprised of a voltage step to fully inactivate the sodium channels, followed by a brief hyperpolarized recovery period to allow partial recovery from inactivation for unblocked sodium channels, followed by a test depolarized voltage step to assess magnitude of inhibition by test compound. Compound effect was determined based on current amplitude difference between the pre-compound addition and post-compound addition scans.
# Compounds of the Examples were tested in the assays described above and found to have the Nav1.7 EIC50 (μM) values specified in the table below. All data are derived from the PatchXpress assay unless explicitly stated otherwise.
# T1 sequence (Q15858 whole entry): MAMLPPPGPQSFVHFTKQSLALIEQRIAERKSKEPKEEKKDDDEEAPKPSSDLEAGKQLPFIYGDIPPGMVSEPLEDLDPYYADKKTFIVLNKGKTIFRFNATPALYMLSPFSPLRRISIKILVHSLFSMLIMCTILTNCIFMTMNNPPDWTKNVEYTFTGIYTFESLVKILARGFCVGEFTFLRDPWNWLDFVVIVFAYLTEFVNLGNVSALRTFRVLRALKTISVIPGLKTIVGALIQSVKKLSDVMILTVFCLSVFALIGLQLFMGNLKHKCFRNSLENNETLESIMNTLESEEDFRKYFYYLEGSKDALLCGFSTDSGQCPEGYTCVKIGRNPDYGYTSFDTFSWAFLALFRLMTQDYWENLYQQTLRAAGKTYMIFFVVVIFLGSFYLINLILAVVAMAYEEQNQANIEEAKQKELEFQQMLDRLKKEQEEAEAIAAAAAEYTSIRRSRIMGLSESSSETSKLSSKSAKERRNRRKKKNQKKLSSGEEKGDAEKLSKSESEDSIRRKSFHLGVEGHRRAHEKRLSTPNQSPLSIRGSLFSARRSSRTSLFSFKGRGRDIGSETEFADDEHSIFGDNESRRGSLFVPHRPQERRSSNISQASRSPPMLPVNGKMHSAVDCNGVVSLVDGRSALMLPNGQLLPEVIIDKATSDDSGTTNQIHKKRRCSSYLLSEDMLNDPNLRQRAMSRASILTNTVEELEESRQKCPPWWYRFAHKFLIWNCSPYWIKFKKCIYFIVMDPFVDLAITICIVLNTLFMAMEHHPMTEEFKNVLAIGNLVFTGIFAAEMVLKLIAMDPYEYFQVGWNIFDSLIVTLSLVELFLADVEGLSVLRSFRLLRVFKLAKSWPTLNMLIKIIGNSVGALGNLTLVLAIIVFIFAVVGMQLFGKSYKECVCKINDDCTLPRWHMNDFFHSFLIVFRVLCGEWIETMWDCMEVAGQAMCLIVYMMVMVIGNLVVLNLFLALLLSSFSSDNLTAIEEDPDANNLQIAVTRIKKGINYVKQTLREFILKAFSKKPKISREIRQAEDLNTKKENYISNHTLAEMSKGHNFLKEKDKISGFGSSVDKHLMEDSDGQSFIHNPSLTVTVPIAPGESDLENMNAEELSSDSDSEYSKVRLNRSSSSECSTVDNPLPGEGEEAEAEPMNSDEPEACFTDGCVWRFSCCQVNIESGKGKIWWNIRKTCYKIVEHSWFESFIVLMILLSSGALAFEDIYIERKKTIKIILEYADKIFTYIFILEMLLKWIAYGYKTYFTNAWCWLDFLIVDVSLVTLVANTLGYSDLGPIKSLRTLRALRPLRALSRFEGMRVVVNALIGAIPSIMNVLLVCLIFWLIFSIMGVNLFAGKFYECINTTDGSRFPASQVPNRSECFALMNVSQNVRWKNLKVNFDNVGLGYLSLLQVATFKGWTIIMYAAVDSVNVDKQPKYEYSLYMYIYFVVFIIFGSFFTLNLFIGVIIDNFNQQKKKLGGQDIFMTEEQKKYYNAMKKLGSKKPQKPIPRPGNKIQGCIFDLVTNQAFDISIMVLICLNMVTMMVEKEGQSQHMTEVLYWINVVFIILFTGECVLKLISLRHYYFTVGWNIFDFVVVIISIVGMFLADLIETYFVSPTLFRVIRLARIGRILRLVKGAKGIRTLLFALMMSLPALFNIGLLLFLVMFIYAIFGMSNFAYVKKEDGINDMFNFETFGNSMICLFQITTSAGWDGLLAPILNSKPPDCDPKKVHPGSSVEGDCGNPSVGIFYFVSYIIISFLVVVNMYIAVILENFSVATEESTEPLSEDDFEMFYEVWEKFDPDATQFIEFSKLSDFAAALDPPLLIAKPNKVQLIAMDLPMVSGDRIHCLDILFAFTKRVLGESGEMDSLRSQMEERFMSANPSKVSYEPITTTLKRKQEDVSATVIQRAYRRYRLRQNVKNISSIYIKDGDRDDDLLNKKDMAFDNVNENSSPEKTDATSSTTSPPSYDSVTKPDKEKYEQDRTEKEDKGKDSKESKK
row,pIC50,Structure (SMILES)
1,3.92,"COc1c(C(=O)NS(C)(=O)=O)ccc(Oc2ccc(Oc3ccc(F)cc3)nc2)c1F [Example L47, 3-fluoro-4-{[6-(4-fluorophenoxy)pyridin-3-yl]oxy}-2-methoxy-N-(methylsulfonyl)benzamide]"
2,4.41,"CCCc1ccc(Oc2ccc(C(=O)NS(C)(=O)=O)cc2F)cn1 [Example L48, 3-fluoro-N-(methylsulfonyl)-4-[(6-propylpyridin-3-yl)oxy]benzamide]"
3,3.52,"Cc1ccc(Oc2ccc(C(=O)NS(C)(=O)=O)cc2F)cn1 [Example L51, 3-fluoro-4-[(6-methylpyridin-3-yl)oxy]-N-(methylsulfonyl)benzamide]"
4,3.52,"CCc1ccc(Oc2ccc(C(=O)NS(C)(=O)=O)c(C)c2)cn1 [Example L55, 4-[(6-ethylpyridin-3-yl)oxy]-2-methyl-N-(methylsulfonyl)benzamide]"
5,3.67,"Cc1ncc(Oc2ccc(C(=O)NS(C)(=O)=O)cc2Cl)cn1 [Example L58, 3-chloro-4-[(2-methylpyrimidin-5-yl)oxy]-N-(methylsulfonyl)benzamide]"
6,4.00,"Cc1ncc(Oc2ccc(C(=O)NS(C)(=O)=O)cc2C(F)(F)F)cn1 [Example L61, 4-[(2-methylpyrimidin-5-yl)oxy]-N-(methylsulfonyl)-3-(trifluoromethyl)benzamide]"
7,4.24,"COc1c(C(=O)NS(C)(=O)=O)ccc(Oc2cnc(N3CCCCC3)nc2)c1F [Example L62, 3-fluoro-2-methoxy-N-(methylsulfonyl)-4-[(2-piperidin-1-ylpyrimidin-5-yl)oxy]benzamide]"
8,< 3.49,"CS(=O)(=O)NC(=O)c1ccc(Oc2cncnc2)c(Cl)c1 [Example L64, 3-chloro-N-(methylsulfonyl)-4-(pyrimidin-5-yloxy)benzamide]"
